Data from publication PMC11990670, “Exploring the Volatility, Phase Transitions, and Solubility Properties of Five Halogenated Benzaldehydes” (Molecules, 2025).
Marks after values point to notes of the source that are not given here.

Tests used:
[1] = Vapor pressures of crystalline and liquid phases, static method with capacitance diaphragm gauge; type: physicochemical
Excerpt: A previously described and tested static apparatus was used to measure the vapor pressures of the condensed phases (both crystalline and liquid) of the five compounds studied. This installation employs MKS capacitance diaphragm absolute gauges, operating at self-regulated constant temperatures. Our lab is equipped with three pressure gauges. Gauge I, a Baratron 631A01TBEH (MKS instruments, Andover, MA, USA) (Tgauge = 423 K), measures pressures in the range of 0.5 to 1.3 × 10^2 Pa and operates within a temperature range of 253 to 413 K. Gauge II, the instrument used in this study, is a Baratron 631A11TBFP (MKS instruments, Andover, MA, USA) (Tgauge = 473 K), capable of measuring pressures from 0.5 to 1.3 × 10^3 Pa within a temperature range of 253 to 433 K and gauge III, a Baratron 631D02T8FP (MKS instruments, Andover, MA, USA) (Tgauge = 473 K), designed to measure pressures between 0.5 Pa and 2.6 × 10^2 Pa, also within a temperature range of 253 to 433 K. The temperatures of the samples were measured using a Pt100 platinum resistance thermometer, calibrated by comparison with a standard platinum resistance thermometer (SPRT: Tinsley Precision Instruments Ltd, London, England). To prevent vapor condensation, the tubing connecting the cell containing the condensed sample to the pressure gauge is maintained at a temperature higher than that of the sample but lower than that of the gauge. The uncertainty in temperature measurements is estimated to be u(T/K) = ±0.01, and the expanded uncertainties (0.95 confidence level, k = 2) in pressure measurements are given by the expression U(p/Pa) = 0.1 + 0.0050 (p/Pa) for the gauge used. Samples were thoroughly degassed before starting the vapor pressure measurements, ensuring consistent readings at specific temperatures and eliminating any residual volatile substances, including water.

[2] = Gibbs energy of hydration and Henry's law volatility constant calculated from sublimation and solubility data; conditions: 25 °C; for Gibbs energy of hydration ΔhydrGm°: calculated by Equation (4); for log10(KHpc/kPa·m^3·mol^−1) Henry's law volatility constant: calculated by Equation (6); for KHpc×10^3 Henry's law volatility constant: value is KHpc multiplied by 10^3
Experimental: (§1) The concentration was measured by absorbances at 260 nm for 4-chlorobenzaldehyde, 263 nm for 4-bromobenzaldehyde and 2,4-dichlorobenzaldehyde, 297 nm for 2,6-dichlorobenzaldehyde, and 306 nm for 2,3-dichlorobenzaldehyde, using a Cary-60 UV–vis (Agilent) spectrophotometer. X-ray diffraction (XRD) and differential scanning calorimetry of residual solids were used to identify the eventual phase transformations. The purified samples of each compound studied were used for all experimental determinations, including the solubility measurements. After reaching the equilibrium, the residual solid was dried and analyzed using both DSC and XRD. The melting properties obtained from DSC were compared with those of the original purified sample, following the same procedure for the XRD analysis. […] As an example, the supporting information includes two thermograms and two XRD patterns for 2,4-dichlorobenzaldehyde (Figures S1 and S2). […] Equation (4) was derived from Equation (5), which is widely applicable to the solubility of solids.(4) ΔhydrGm°/kJ·mol^−1=9.17−5.71·log10(Scr/mol·m^−3)−ΔcrgGm°/kJ·mol^−1 (5) S=p^°/RTexpΔcrgGm°+ΔhydrGm°/−RT
The standard states in Equation (5) are p° = 1 × 10^5 Pa for ΔcrgGm° , c° = 1 mol·L^−1 for ΔhydrGm° and s° = 1 mol·m^−3 for solubility. Using the experimental results of ΔhydrGm° , calculated through Equation (4), the values of Henry’s law volatility constants, KHpc, were determined in the logarithm form by Equation (6), that was adapted from Modarressi et al..

[3] = pH of the saturated aqueous solutions; type: physicochemical; conditions: saturated aqueous solution of the solubility experiment
Experimental: as §1
An excess amount of each compound was added to a known volume of water in triplicate. […] After stirring, the solid phase was allowed to settle for 2 h. The pH of the saturated solutions was measured using a Mettler Toledo (Greifensee, Switzerland) FiveEasy F20 pH Meter calibrated with standard aqueous solutions (pH 7.00 and 4.01 or 10.1). Those solutions were then filtered through a 0.22 μm syringe hydrophilic filter (13 mm, PTFE, Labfil, Zhejiang, China) and diluted to the required concentration. The concentration of the compounds, expressed in molarity, was measured by absorbances using a Cary-60 UV–vis spectrophotometer (Agilent Technologies, Santa Clara, CA, USA) at 298.15 K (single cell Peltier accessory, ±0.15 K). The results reported in Table 6 are averaged from at least three replicates. Calibration was performed using solutions of known concentrations of each substance in water. These solutions were prepared by adding a precise mass of the substance and a specific volume of the solvent to a flask, then mixing until the substance was fully dissolved. The absorbance of these solutions was measured, and calibration curves were created.

Structure (SMILES): O=Cc1cccc(Cl)c1Cl [2,3-Dichlorobenzaldehyde]
- vapor pressure p ([1]; crystalline phase, T = 284.21 K): 0.49 Pa
- vapor pressure p ([1]; crystalline phase, T = 286.16 K): 0.63 Pa
- vapor pressure p ([1]; crystalline phase, T = 288.13 K): 0.78 Pa
- vapor pressure p ([1]; crystalline phase, T = 290.09 K): 0.99 Pa
- vapor pressure p ([1]; crystalline phase, T = 292.06 K): 1.26 Pa
- vapor pressure p ([1]; crystalline phase, T = 294.04 K): 1.58 Pa
- vapor pressure p ([1]; crystalline phase, T = 296.22 K): 2.00 Pa
- vapor pressure p ([1]; crystalline phase, T = 298.17 K): 2.47 Pa
- vapor pressure p ([1]; crystalline phase, T = 299.97 K): 3.02 Pa
- vapor pressure p ([1]; crystalline phase, T = 302.18 K): 3.78 Pa
- vapor pressure p ([1]; crystalline phase, T = 303.89 K): 4.58 Pa
- vapor pressure p ([1]; crystalline phase, T = 305.78 K): 5.63 Pa
- vapor pressure p ([1]; crystalline phase, T = 308.08 K): 7.12 Pa
- vapor pressure p ([1]; crystalline phase, T = 309.86 K): 8.45 Pa
- vapor pressure p ([1]; crystalline phase, T = 312.03 K): 10.58 Pa
- vapor pressure p ([1]; crystalline phase, T = 313.92 K): 12.78 Pa
- vapor pressure p ([1]; crystalline phase, T = 315.60 K): 15.22 Pa
- vapor pressure p ([1]; crystalline phase, T = 317.96 K): 18.67 Pa
- vapor pressure p ([1]; crystalline phase, T = 319.59 K): 21.97 Pa
- vapor pressure p ([1]; crystalline phase, T = 321.86 K): 27.35 Pa
- vapor pressure p ([1]; crystalline phase, T = 323.56 K): 31.92 Pa
- vapor pressure p ([1]; crystalline phase, T = 325.70 K): 39.35 Pa
- vapor pressure p ([1]; crystalline phase, T = 327.48 K): 45.52 Pa
- vapor pressure p ([1]; crystalline phase, T = 329.63 K): 56.32 Pa
- vapor pressure p ([1]; crystalline phase, T = 331.62 K): 65.87 Pa
- vapor pressure p ([1]; liquid phase, T = 335.54 K): 91.33 Pa
- vapor pressure p ([1]; liquid phase, T = 337.55 K): 103.4 Pa
- vapor pressure p ([1]; liquid phase, T = 339.54 K): 117.4 Pa
- vapor pressure p ([1]; liquid phase, T = 341.49 K): 133.6 Pa
- vapor pressure p ([1]; liquid phase, T = 343.48 K): 150.6 Pa
- vapor pressure p ([1]; liquid phase, T = 345.45 K): 169.9 Pa
- vapor pressure p ([1]; liquid phase, T = 347.44 K): 189.1 Pa
- vapor pressure p ([1]; liquid phase, T = 349.41 K): 214.0 Pa
- vapor pressure p ([1]; liquid phase, T = 351.50 K): 240.6 Pa
- vapor pressure p ([1]; liquid phase, T = 353.48 K): 267.2 Pa
- vapor pressure p ([1]; liquid phase, T = 355.36 K): 297.6 Pa
- vapor pressure p ([1]; liquid phase, T = 357.43 K): 335.9 Pa
- vapor pressure p ([1]; liquid phase, T = 359.33 K): 371.6 Pa
- vapor pressure p ([1]; liquid phase, T = 361.39 K): 419.6 Pa
- vapor pressure p ([1]; liquid phase, T = 363.27 K): 461.9 Pa
- vapor pressure p ([1]; liquid phase, T = 365.34 K): 516.4 Pa
- vapor pressure p ([1]; liquid phase, T = 367.35 K): 569.4 Pa
- vapor pressure p ([1]; liquid phase, T = 369.27 K): 630.4 Pa
- vapor pressure p ([1]; liquid phase, T = 371.17 K): 695.2 Pa
- vapor pressure p ([1]; liquid phase, T = 373.23 K): 767.3 Pa
- vapor pressure p ([1]; liquid phase, T = 375.13 K): 843.4 Pa
- vapor pressure p ([1]; liquid phase, T = 377.17 K): 930.5 Pa
- vapor pressure p ([1]; liquid phase, T = 379.07 K): 1011 Pa
- vapor pressure p ([1]; liquid phase, T = 381.03 K): 1104 Pa
- vapor pressure p ([1]; supercooled liquid, T = 327.59 K): 54.84 ^d Pa
- vapor pressure p ([1]; supercooled liquid, T = 329.66 K): 62.05 ^d Pa
- vapor pressure p ([1]; supercooled liquid, T = 331.60 K): 71.02 ^d Pa
- vapor pressure p ([1]; supercooled liquid, T = 333.65 K): 80.84 ^d Pa
- Gibbs energy of hydration ΔhydrGm° [2]: -3.99 kcal/mol
- log10(KHpc/kPa·m^3·mol^−1) Henry's law volatility constant [2]: −2.53
- KHpc×10^3 Henry's law volatility constant [2]: 2.95 kPa·m^3·mol^−1
- pH of the saturated solution [3]: 6.43

Structure (SMILES): O=Cc1ccc(Br)cc1 [4-Bromobenzaldehyde]
- vapor pressure p ([1]; crystalline phase, T = 283.09 K): 0.83 Pa
- vapor pressure p ([1]; crystalline phase, T = 285.23 K): 1.07 Pa
- vapor pressure p ([1]; crystalline phase, T = 287.05 K): 1.33 Pa
- vapor pressure p ([1]; crystalline phase, T = 289.17 K): 1.71 Pa
- vapor pressure p ([1]; crystalline phase, T = 291.17 K): 2.13 Pa
- vapor pressure p ([1]; crystalline phase, T = 292.95 K): 2.63 Pa
- vapor pressure p ([1]; crystalline phase, T = 295.00 K): 3.25 Pa
- vapor pressure p ([1]; crystalline phase, T = 297.08 K): 4.12 Pa
- vapor pressure p ([1]; crystalline phase, T = 298.95 K): 4.98 Pa
- vapor pressure p ([1]; crystalline phase, T = 301.06 K): 6.27 Pa
- vapor pressure p ([1]; crystalline phase, T = 302.93 K): 7.60 Pa
- vapor pressure p ([1]; crystalline phase, T = 304.86 K): 9.21 Pa
- vapor pressure p ([1]; crystalline phase, T = 306.87 K): 11.43 Pa
- vapor pressure p ([1]; crystalline phase, T = 308.76 K): 13.82 Pa
- vapor pressure p ([1]; crystalline phase, T = 310.84 K): 17.02 Pa
- vapor pressure p ([1]; crystalline phase, T = 312.78 K): 20.28 Pa
- vapor pressure p ([1]; crystalline phase, T = 314.77 K): 24.88 Pa
- vapor pressure p ([1]; crystalline phase, T = 316.79 K): 29.92 Pa
- vapor pressure p ([1]; crystalline phase, T = 318.78 K): 36.33 Pa
- vapor pressure p ([1]; crystalline phase, T = 320.66 K): 43.34 Pa
- vapor pressure p ([1]; crystalline phase, T = 322.62 K): 51.66 Pa
- vapor pressure p ([1]; crystalline phase, T = 324.68 K): 61.49 Pa
- vapor pressure p ([1]; liquid phase, T = 330.60 K): 103.9 Pa
- vapor pressure p ([1]; liquid phase, T = 332.51 K): 117.8 Pa
- vapor pressure p ([1]; liquid phase, T = 334.45 K): 131.9 Pa
- vapor pressure p ([1]; liquid phase, T = 336.48 K): 148.9 Pa
- vapor pressure p ([1]; liquid phase, T = 338.43 K): 168.4 Pa
- vapor pressure p ([1]; liquid phase, T = 340.46 K): 189.9 Pa
- vapor pressure p ([1]; liquid phase, T = 342.44 K): 213.5 Pa
- vapor pressure p ([1]; liquid phase, T = 344.41 K): 240.4 Pa
- vapor pressure p ([1]; liquid phase, T = 346.34 K): 266.7 Pa
- vapor pressure p ([1]; liquid phase, T = 348.34 K): 300.1 Pa
- vapor pressure p ([1]; liquid phase, T = 350.32 K): 333.2 Pa
- vapor pressure p ([1]; liquid phase, T = 352.34 K): 375.3 Pa
- vapor pressure p ([1]; liquid phase, T = 354.27 K): 418.5 Pa
- vapor pressure p ([1]; liquid phase, T = 356.26 K): 463.6 Pa
- vapor pressure p ([1]; liquid phase, T = 358.21 K): 513.4 Pa
- vapor pressure p ([1]; liquid phase, T = 360.13 K): 573.1 Pa
- vapor pressure p ([1]; liquid phase, T = 362.14 K): 628.6 Pa
- vapor pressure p ([1]; liquid phase, T = 364.12 K): 701.8 Pa
- vapor pressure p ([1]; liquid phase, T = 366.10 K): 775.8 Pa
- vapor pressure p ([1]; liquid phase, T = 368.08 K): 860.4 Pa
- vapor pressure p ([1]; liquid phase, T = 370.05 K): 946.6 Pa
- vapor pressure p ([1]; liquid phase, T = 371.99 K): 1026 Pa
- vapor pressure p ([1]; liquid phase, T = 373.98 K): 1147 Pa
- vapor pressure p ([1]; supercooled liquid, T = 316.76 K): 39.76 ^d Pa
- vapor pressure p ([1]; supercooled liquid, T = 318.77 K): 46.26 ^d Pa
- vapor pressure p ([1]; supercooled liquid, T = 320.73 K): 53.22 ^d Pa
- vapor pressure p ([1]; supercooled liquid, T = 322.70 K): 60.73 ^d Pa
- vapor pressure p ([1]; supercooled liquid, T = 324.68 K): 69.79 ^d Pa
- vapor pressure p ([1]; supercooled liquid, T = 326.64 K): 79.36 ^d Pa
- vapor pressure p ([1]; supercooled liquid, T = 328.63 K): 90.64 ^d Pa
- Gibbs energy of hydration ΔhydrGm° [2]: -4.49 kcal/mol
- log10(KHpc/kPa·m^3·mol^−1) Henry's law volatility constant [2]: −2.90
- KHpc×10^3 Henry's law volatility constant [2]: 1.26 kPa·m^3·mol^−1
- pH of the saturated solution [3]: 6.82
